Source: patent US20210276978A1, “INHIBITORS OF HISTONE DEACETYLASE” (Alkermes, Inc., priority 2018, published 2021)

What was measured:
Full length Human HDAC2 = target: T1, Full length Human HDAC2 (Homo sapiens, UniProt Q92769); assay: HDAC2 enzymatic assay (deacetylation of FAM-labeled peptide substrate, microfluidic electrophoresis); type: biochemical; details: 1 uM substrate peptide
T1 construct: Full length Human HDAC2 with; FLAG (C); host or cells: baculovirus expression system
Protocol: (§1) HDAC2 and HDAC1 Enzymatic Assay (HDAC2 and HDAC1 IC50 Data)
(§2) The following describes an assay protocol for measuring the deacetylation of a peptide substrate by HDAC2 or HDAC1.
(§3) HDAC protein composition and respective substrate peptides are summarized below.
(§4) HDAC reactions are assembled in 384 well plates (Greiner) in a total volume of 20 µL as following:
(§5) HDAC proteins are pre-diluted in the assay buffer comprising: 100 mM HEPES, pH 7.5, 0.1% BSA, 0.01% Triton X-100, 25 mM KCl and dispensed into 384 well plate (10 uL per well).
(§6) Test compounds are serially pre-diluted in DMSO and added to the protein samples by acoustic dispensing (Labcyte Echo). Concentration of DMSO is equalized to 1% in all samples.
(§7) Control samples (0%-inhibition in the absence of inhibitor, DMSO only) and 100%-inhibition (in the absence of enzyme) are assembled in replicates of four and used to calculate the %-inhibition in the presence of compounds.
(§8) At this step compounds can be pre-incubated with enzyme if desired.
(§9) The reactions are initiated by addition of 10 uL of the FAM-labeled substrate peptide pre-diluted in the same assay buffer. Final concentration of substrate peptide is 1 uM (HDAC1-2). The reactions are allowed to proceed at room temperature. Following incubation, the reactions are quenched by addition of 50 µL of termination buffer (100 mM HEPES, pH7.5, 0.01% Triton X-100, 0.1% SDS). Terminated plates are analyzed on a microfluidic electrophoresis instrument (Caliper LabChip® 3000, Caliper Life Sciences/Perkin Elmer) which enables electrophoretic separation of de-acetylated product from acetylated substrate. A change in the relative intensity of the peptide substrate and product is the parameter measured. Activity in each test sample is determined as the product to sum ratio (PSR): P/(S+P), where P is the peak height of the product, and S is the peak height of the substrate. Percent inhibition (Pinh) is determined using the following equation: Pinh=(PSR0% inh−PSRcompound)/(PSR0% inh−PSR100% inh)*100, in which: PSRcompound is the product/sum ratio in the presence of compound, PSR0% inh is the product/sum ratio in the absence of compound and the PSR100% inh is the product/sum ratio in the absence of the enzyme. To determine IC50 of compounds (50%-inhibition) the %-inh data (Pinh versus compound concentration) are fit by a 4 parameter sigmoid dose-response model using XLfit software (IDBS).
(§10) In the table, “A” indicates a IC50 value of less than 0.5 “B” a IC50 value from 0.5 μM to 1.0 μM; “C” a IC50 value of greater than 1.0 μM and less than or equal to 2.0 μM; and “D” indicates an IC50 value of greater than 2.0 NT=Not Tested.

Full length Human HDAC1 = target: T2, Full length Human HDAC1 (Homo sapiens, UniProt Q13547); assay: HDAC1 enzymatic assay (deacetylation of FAM-labeled peptide substrate, microfluidic electrophoresis); type: biochemical; details: 1 uM substrate peptide
T2 construct: Full length Human HDAC1 with; His (C); FLAG (C); host or cells: baculovirus expression system
Protocol: as §1, §2, §3, §4, §5, §6, §7, §8, §9, §10

HDAC2 = target: T3, HDAC2 (Homo sapiens, UniProt Q92769); assay: HDAC2 enzymatic inhibition assay in SH-SY5Y cell lysate with an exogenous substrate (HDAC-Glo 2); type: cell-based; details: SH-SY5Y cells
T3 construct: host or cells: SH-SY5Y cells
Protocol: HDAC2 Enzymatic Inhibition Assay in SH-SY5Y Cell Lysate with an Exogenous Substrate
SH-SY5Y cells (Sigma) were cultured in Eagle's Modified Essential Medium supplemented with 10% fetal bovine serum and pen/strep. Twenty-four hours prior to compound dosing 20 uL of cells were plated in white 384 well plates at a density of 1,500 cells/well. Compounds were serially diluted in neat DMSO and then diluted 1:100 v/v into media without FBS and mixed. Media was removed from the plated cells and the diluted compounds in serum free media (1% v/v final DMSO) were added and incubated at 37.0 for five hours. Ten uL of HDAC-Glo 2 reagent with 0.1% Triton X-100 was then added, the plate was mixed and allowed to develop at room temperature for 100 minutes. Plates were then read with a Spectramax LMax luminometer employing a 0.4 s integration time. Dose response curves were constructed with normalized data where CI-994 at 100 uM was defined as 100% inhibition and DMSO alone as 0% inhibition.
In the table, “A” indicates a IC50 value of less than 0.5 μM; “B” a IC50 value from 0.5 μM to 1.0 μM; “C” a IC50 value of greater than 1.0 μM and less than or equal to 2.0 μM; and “D” indicates an IC50 value of greater than 2.0 μM. NT=Not Tested.

[1] = five hours incubation, HDAC-Glo 2 reagent, class symbols
[2] = HDAC-Glo 2, numeric values, Table 4

T2 sequence (Q13547 whole entry): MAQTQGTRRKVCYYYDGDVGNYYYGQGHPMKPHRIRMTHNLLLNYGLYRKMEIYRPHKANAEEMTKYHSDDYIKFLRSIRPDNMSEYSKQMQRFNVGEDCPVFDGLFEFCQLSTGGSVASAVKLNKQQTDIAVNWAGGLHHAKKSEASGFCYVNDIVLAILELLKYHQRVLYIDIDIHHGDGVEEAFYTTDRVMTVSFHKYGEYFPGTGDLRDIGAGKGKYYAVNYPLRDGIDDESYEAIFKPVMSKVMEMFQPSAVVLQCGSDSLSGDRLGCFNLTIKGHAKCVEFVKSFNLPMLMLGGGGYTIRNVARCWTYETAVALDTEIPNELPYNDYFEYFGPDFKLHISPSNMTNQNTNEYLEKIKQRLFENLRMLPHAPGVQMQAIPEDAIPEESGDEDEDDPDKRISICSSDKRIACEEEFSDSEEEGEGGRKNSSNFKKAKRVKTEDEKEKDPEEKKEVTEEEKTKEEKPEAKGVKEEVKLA
T1 sequence (Q92769 whole entry): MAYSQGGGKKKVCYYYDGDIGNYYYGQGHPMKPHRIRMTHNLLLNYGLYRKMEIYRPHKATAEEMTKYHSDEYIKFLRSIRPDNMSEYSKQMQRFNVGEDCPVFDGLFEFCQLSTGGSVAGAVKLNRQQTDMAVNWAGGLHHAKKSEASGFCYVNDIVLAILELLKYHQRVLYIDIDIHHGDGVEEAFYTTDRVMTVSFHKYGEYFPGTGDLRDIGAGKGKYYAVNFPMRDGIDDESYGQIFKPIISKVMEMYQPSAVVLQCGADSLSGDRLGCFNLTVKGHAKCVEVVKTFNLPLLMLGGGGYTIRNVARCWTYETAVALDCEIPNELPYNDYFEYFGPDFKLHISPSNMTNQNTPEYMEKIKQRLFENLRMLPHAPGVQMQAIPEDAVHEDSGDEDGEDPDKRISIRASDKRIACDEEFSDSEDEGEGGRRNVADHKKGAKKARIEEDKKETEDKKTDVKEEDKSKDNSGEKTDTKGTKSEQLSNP
T3 sequence (Q92769 whole entry): as above

IC50 (Full length Human HDAC2) [nM] | IC50 (Full length Human HDAC1) [nM] | IC50 (HDAC2; [1]) [nM] | IC50 (HDAC2; [2]) [nM] | Compound
– | – | > 2000 | – | Cc1ccc(C2CCN(C(=O)Nc3nc(-c4ccc(F)cc4F)ccc3N)C2)cn1 (centres unmarked) [Compound 11]
500 to 1000 | < 500 | 500 to 1000 | – | Nc1ccc(-c2ccc(F)cc2F)nc1NC(=O)N1CCC(c2ncccn2)C1 (racemic) [Compound 7]
500 to 1000 | < 500 | 1000 to 2000 | – | Cc1ccnc(C2CCN(C(=O)Nc3nc(-c4ccc(F)cc4F)ccc3N)C2)n1 (centres unmarked) [Compound 10]
1000 to 2000 | 1000 to 2000 | – | – | Nc1ccc(-c2ccc(F)cc2F)nc1NC(=O)N1CCC(c2ncccn2)C1 (single isomer, unassigned) [Compound 8E2]
1000 to 2000 | 500 to 1000 | 1000 to 2000 | – | Nc1ccc(-c2ccc(F)cc2F)nc1NC(=O)N1CCC(c2cccnn2)C1 (centres unmarked) [Compound 9]
> 2000 | > 2000 | > 2000 | – | Nc1ccc(-c2ccc(F)cc2F)nc1NC(=O)N1CCC(c2ccncc2)C1 (centres unmarked) [Compound 3]
500 to 1000 | 500 to 1000 | 1000 to 2000 | – | Nc1ccc(-c2ccc(F)cc2F)nc1NC(=O)N1CCC(c2ncc(F)cn2)C1 (centres unmarked) [Compound 14]
– | – | > 2000 | – | Nc1ccc(-c2ccc(F)cc2F)nc1NC(=O)N1CCC(Oc2cccnn2)C1 (centres unmarked) [Compound 22]
1000 to 2000 | 1000 to 2000 | 500 to 1000 | 535 | Nc1ccc(-c2ccc(F)cc2F)nc1NC(=O)N1CCC(Cc2cccnn2)C1 (centres unmarked) [Compound 26]
– | – | > 2000 | – | Cc1cnc(C2CCN(C(=O)Nc3nc(-c4ccc(F)cc4F)ccc3N)C2)nc1 (centres unmarked) [Compound 33]
< 500 | < 500 | – | – | Nc1ccc(-c2ccc(F)cc2F)nc1NC(=O)N1CCC(c2ncccn2)C1 (single isomer, unassigned) [Compound 8E1]
– | – | > 2000 | – | COCc1cccc(C2CCN(C(=O)Nc3nc(-c4ccc(F)cc4F)ccc3N)C2)n1 (centres unmarked) [Compound 12]
– | – | > 2000 | – | Cc1nccc(C2CCN(C(=O)Nc3nc(-c4ccc(F)cc4F)ccc3N)C2)n1 (centres unmarked) [Compound 15]
– | – | 1000 to 2000 | – | Cc1cncc(C2CCN(C(=O)Nc3nc(-c4ccc(F)cc4F)ccc3N)C2)n1 (centres unmarked) [Compound 17]

More lines, now with the values behind:

Compound | IC50 (Full length Human HDAC2) [nM] | IC50 (Full length Human HDAC1) [nM] | IC50 (HDAC2; [1]) [nM] | IC50 (HDAC2; [2]) [nM]
Nc1ccc(-c2ccc(F)cc2F)nc1NC(=O)N1CCC(Cc2ncccn2)C1 (single isomer, unassigned) [Compound 25E2] | > 2000 | 1000 to 2000 | 500 to 1000 | –
Nc1ccc(-c2ccc(F)cc2F)nc1NC(=O)N1CCC(Cn2ccnc2)C1 (centres unmarked) [Compound 34] | – | – | > 2000 | –
Cc1cc(C)nc(C2CCN(C(=O)Nc3nc(-c4ccc(F)cc4F)ccc3N)C2)n1 (centres unmarked) [Compound 16] | – | – | > 2000 | –
Cc1ccnc(C2CCN(C(=O)Nc3nc(-c4ccc(F)cc4)ccc3N)C2)n1 (single isomer, unassigned) [Compound 51] | 500 to 1000 | < 500 | 1000 to 2000 | –
Nc1ccc(-c2ccc(F)cc2F)nc1NC(=O)N1CCC(F)(c2ncccn2)C1 (single isomer, unassigned) [Compound 29E2] | 1000 to 2000 | 1000 to 2000 | 1000 to 2000 | –
Nc1ccc(-c2ccc(F)cc2)nc1NC(=O)N1CCC(c2ncccn2)C1 (single isomer, unassigned) [Compound 19E1] | < 500 | 500 to 1000 | 1000 to 2000 | –
Nc1ccc(-c2ccc(F)s2)nc1NC(=O)N1CCC(c2ncccn2)C1 (single isomer, unassigned) [Compound 39] | 1000 to 2000 | 1000 to 2000 | > 2000 | –
Nc1ccc(-c2ccc(F)cc2F)nc1NC(=O)N1CCC(Cc2ncccn2)C1 (single isomer, unassigned) [Compound 25E1] | 1000 to 2000 | 1000 to 2000 | 500 to 1000 | –
COCC1CCN(C(=O)Nc2nc(-c3ccc(F)cc3)ccc2N)C1 (centres unmarked) [Comparator E, reference compound] | – | – | – | > 100000
Cc1cnc(CC2CCN(C(=O)Nc3nc(-c4ccc(F)cc4F)ccc3N)C2)o1 (centres unmarked) [Compound 47] | – | – | > 2000 | –
Nc1ccc(-c2ccc(F)cc2)nc1NC(=O)N1CCCC1 [Comparator A, reference compound] | – | – | – | 2640
Nc1ccc(-c2ccc(F)cc2F)nc1NC(=O)N1CC[C@@H](Oc2cccnc2)C1 [Compound 5] | – | – | > 2000 | –
Nc1ccc(-c2ccc(F)s2)nc1NC(=O)N1CCC(F)(c2ncccn2)C1 (centres unmarked) [Compound 45] | 1000 to 2000 | 500 to 1000 | 500 to 1000 | –
Nc1ccc(-c2ccc(F)cc2F)nc1NC(=O)N1CCC(Oc2ncccn2)C1 (centres unmarked) [Compound 23] | > 2000 | > 2000 | > 2000 | –
Nc1ccc(-c2ccc(Cl)s2)nc1NC(=O)N1CCC(c2ncccn2)C1 (centres unmarked) [Compound 42] | – | – | > 2000 | –
Nc1ccc(-c2ccc(F)cc2)nc1NC(=O)N1CCC(C(F)(F)F)C1 (centres unmarked) [Comparator C, reference compound] | – | – | – | 6360

Compound | IC50 (Full length Human HDAC2) [nM] | IC50 (Full length Human HDAC1) [nM] | IC50 (HDAC2; [1]) [nM] | IC50 (HDAC2; [2]) [nM]
Nc1ccc(-c2ccc(F)cc2)nc1NC(=O)N1CCC(F)(c2ncc(F)cn2)C1 (single isomer, unassigned) [Compound 53] | 500 to 1000 | < 500 | 500 to 1000 | –
Nc1ccc(-c2ccc(F)cc2)nc1NC(=O)N1CCC(F)(c2ncc(F)cn2)C1 (single isomer, unassigned) [Compound 52] | 1000 to 2000 | 500 to 1000 | > 2000 | –
Cc1cnc(C2CCN(C(=O)Nc3nc(-c4ccc(F)cc4)ccc3N)C2)o1 (centres unmarked) [Compound 46] | 1000 to 2000 | 500 to 1000 | > 2000 | –
Nc1ccc(-c2ccc(F)s2)nc1NC(=O)N1CCC(c2ncc(F)cn2)C1 (single isomer, unassigned) [Compound 43] | > 2000 | 1000 to 2000 | 1000 to 2000 | –
Nc1ccc(-c2ccccc2F)nc1NC(=O)N1CCC(c2ncc(F)cn2)C1 (centres unmarked) [Compound 21] | 1000 to 2000 | 500 to 1000 | 1000 to 2000 | –
Cc1nnc(C2CCN(C(=O)Nc3nc(-c4ccc(F)cc4F)ccc3N)C2)s1 (centres unmarked) [Compound 32] | – | – | 1000 to 2000 | –
Nc1ccc(-c2ccc(F)cc2F)nc1NC(=O)N1CCC(Cc2cccnc2)C1 (centres unmarked) [Compound 31] | – | – | > 2000 | –
Nc1ccc(-c2ccc(F)cc2F)nc1NC(=O)N1CCC(c2cnc(C(F)F)cn2)C1 (centres unmarked) [Compound 37] | – | – | > 2000 | –
Nc1ccc(-c2ccc(F)cc2F)nc1NC(=O)N1CCC(Cn2cccn2)C1 (centres unmarked) [Compound 35] | – | – | > 2000 | –
Cc1cnc(C2CCN(C(=O)Nc3nc(-c4ccc(F)cc4F)ccc3N)C2)s1 (centres unmarked) [Compound 30] | – | – | > 2000 | –
Cc1ccnc(CC2CCN(C(=O)Nc3nc(-c4ccc(F)cc4F)ccc3N)C2)n1 (centres unmarked) [Compound 27] | – | – | 1000 to 2000 | –
Cc1ccc(CC2CCN(C(=O)Nc3nc(-c4ccc(F)cc4F)ccc3N)C2)nn1 (centres unmarked) [Compound 28] | – | – | 1000 to 2000 | –
Cc1cc(C2CCN(C(=O)Nc3nc(-c4ccc(F)cc4F)ccc3N)C2)nc(C)n1 (centres unmarked) [Compound 13] | – | – | > 2000 | –
Nc1ccc(-c2ccc(F)cc2)nc1NC(=O)N1CCC(F)(F)C1 [Comparator B, reference compound] | – | – | – | 14000
Nc1ccc(-c2ccc(F)cc2F)nc1NC(=O)N1CC[C@H](Oc2cccnc2)C1 [Compound 6] | – | – | > 2000 | –
